Assay results from patent US10330678B2, “Methods and systems for modulating hormones and related methods, agents and compositions” (California Institute of Technology, priority 2010, dated 2019).
Structures can show the parent of a compound that is named as a salt. Where two headings read alike, the source gives them in different places.

Assays:
NCI-H716 cells = experiment: GLP-1 release from endocrine cell line NCI-H716 (GLP-1 RIA kit); assay type: cell-based
Description: Endocrine cell lines of NCI-H716 cells were used for testing release of GLP-1 triggered by various possible ligands.
NCI-H716 cells were incubated in serum-free DME/F12 media containing vehicle (0.01% DMSO) with a candidate ligand at the indicated concentrations. Secretion active GLP-1 in media was measured with GLP-1 RIA kit (Linco Research, Missouri, USA). The experiments for all groups have been conducted in duplicates.

bitter taste = conditions: average; cited from earlier work
hTAS2R47 = molecular target: T1, hTAS2R47 (Homo sapiens, UniProt P59541); conditions: observed by Pronin et al. [Pronin 2004]; cited from earlier work
T1 sequence (P59541 1-319): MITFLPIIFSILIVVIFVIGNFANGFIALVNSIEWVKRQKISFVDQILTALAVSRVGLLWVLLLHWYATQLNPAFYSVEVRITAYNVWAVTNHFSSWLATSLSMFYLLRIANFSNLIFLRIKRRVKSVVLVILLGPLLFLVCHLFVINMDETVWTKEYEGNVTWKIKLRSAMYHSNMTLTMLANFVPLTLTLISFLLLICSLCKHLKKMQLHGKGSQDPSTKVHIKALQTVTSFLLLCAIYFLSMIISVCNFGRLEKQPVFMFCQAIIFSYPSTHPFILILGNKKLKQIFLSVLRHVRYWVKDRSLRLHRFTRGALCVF

STC-5 cells = conditions: 30 minutes incubation, PTC at various concentrations, versus vehicle (FIGS. 24A, 24B)
Description: In GLP-1 release experiments, selected endocrine cell lines of STC-5 cells or NCI-H716 cells were used for testing release of GLP-1 triggered by various possible ligands. Endocrine cells were incubated in serum-free DME/F12 media containing vehicle (0.01% DMSO) and a candidate ligand of certain concentration and for a certain period of incubation time. After incubation, secretion active GLP-1 in media was measured with GLP-1 RIA kit (Linco Research®, Missouri, USA).
Secretion of active GLP-1 in media was measured with GLP-1 RIA kit (Linco Research, Missouri, USA). The experiments for all groups have been conducted in duplicates.

male Sprague-Dawley rats = test system: male Sprague-Dawley rats
Description: The rats were then euthanized 45 min later and removed blood via intracardiac puncture and measured PYY in the blood by a recently modified radioimmunoassay using CURE antibody 9153 (Gift of J Reeve, University of California, Los Angeles.).

[1] = NCI-H716 cells, ligand concentration 10 μm, duplicates, control 58.47
[2] = summary of Table 2, versus control

| SMILES | GLP-1 (pmol/mg protein) (NCI-H716 cells; [1]) | effect on release of GLP-1 from NCI-H716 cells (in words) (NCI-H716 cells; [2]) | also measured |
| --- | --- | --- | --- |
| COc1cc(/C=C/C(=O)CC(=O)/C=C/c2ccc(O)c(OC)c2)ccc1O [Curcumin] | 61.52 | – | – |
| CC(=O)c1c(O)c(C)c(O)c(Cc2c(O)c3c(c(C(=O)/C=C/c4ccccc4)c2O)OC(C)(C)C=C3)c1O [Rottlerin] | – | increase the release of GLP-1 | GLP-1 (pmol/mg protein) (NCI-H716 cells; NCI-H716 cells, ligand concentration 0.05%, duplicates, control 58.47): 111.18 pmol/mg protein |
| c1c2c(cc3c1OCO3)-c1cc3ccc4c(c3c[n+]1CC2)OCO4 [Coptisine chloride] | 121.35 | increase the release of GLP-1 | – |
| O=c1oc2c(O)c(O)cc3c(=O)oc4c(O)c(O)cc1c4c23 [Ellagic acid] | 77.25 | increase the release of GLP-1 | – |
| C=C[C@H]1C[N@@]2CC[C@H]1C[C@H]2[C@H](O)c1ccnc2ccc(OC)cc12 [quinine] | – | – | threshold for stimulation of bitter taste (bitter taste): 8 µM |
| CC(C)=CCC[C@]1(C)[C@@H](CC=C(C)C)C[C@@]2(CC=C(C)C)C(=O)[C@]1(C(=O)C(C)C)C(=O)C(CC=C(C)C)=C2O [Hyperforin] | – | increase the release of GLP-1 | GLP-1 (pmol/mg protein) (NCI-H716 cells; NCI-H716 cells, ligand concentration 5 μg/ml, duplicates, control 58.47): 104.87 pmol/mg protein |
| CCCC(=O)O [Butyrate, reference compound] | – | – | GLP-1 (pmol/mg protein) (NCI-H716 cells; NCI-H716 cells, ligand concentration 2.5 mM, duplicates, control 58.47): 100.77 pmol/mg protein |
| C=CCSC [Allyl methyl sulfide] | 91.547 | increase the release of GLP-1 | – |
| CC[N+](CC)(CC(=O)Nc1c(C)cccc1C)Cc1ccccc1 [Denatonium] | – | – | activation of hTAS2R47 (in words) (hTAS2R47): activated strongest |
| O=C(O[C@@H]1Cc2c(O)cc(O)cc2O[C@@H]1c1cc(O)c(O)c(O)c1)c1cc(O)c(O)c(O)c1 [Epigallocatechin gallate] | – | increase the release of GLP-1 | GLP-1 (pmol/mg protein) (NCI-H716 cells; NCI-H716 cells, ligand concentration 1 μm, duplicates, control 58.47): 91.15 pmol/mg protein |
| CCCCCCCCCCCC1=C(O)C(=O)C=C(O)C1=O [Embelin] | 83.55 | – | – |
| O=C1NS(=O)(=O)c2cc([N+](=O)[O-])ccc21 [Compound 6NS, 6-Nitro saccharin] | – | – | activation of hTAS2R47 (in words) (hTAS2R47): activated the receptor to a lesser extent |
| NC(=S)Nc1ccccc1 [PTC, Phenylthiocarbamide] | – | – | effect on GLP-1 release from STC-5 cells (in words) (STC-5 cells): large effect; change of PYY levels versus saline gavaged rats (in words) (male Sprague-Dawley rats; 5 mM PTC in 5 ml saline by gastric gavage, 45 min): doubling; PYY in the blood (male Sprague-Dawley rats; 5 mM PTC in 5 ml saline by gastric gavage, 45 min later, n=5, saline rats 71+/−35 pM): 154 ± 44 pM; volume of fluid remaining in the stomachs (male Sprague-Dawley rats; at sacrifice 45 min after gavage of 5 ml, saline-treated rats less than 0.5 ml): 1 to 2 mL; GLP-1 (pmol/mg protein) (NCI-H716 cells): 98.73 pmol/mg protein; effect on release of GLP-1 from NCI-H716 cells (in words) (NCI-H716 cells): increase the release of GLP-1 |
| CC1(C)[C@@H](O[C@H]2O[C@H](C(=O)O)[C@@H](O)[C@H](O)[C@H]2O[C@@H]2O[C@H](C(=O)O)[C@@H](O)[C@H](O)[C@H]2O)CC[C@]2(C)[C@H]3C(=O)C=C4[C@@H]5C[C@@](C)(C(=O)O)CC[C@]5(C)CC[C@@]4(C)[C@]3(C)CC[C@@H]12 [Glycyrrhizic acid ammonium salt] | 71.95 | increase the release of GLP-1 | – |
| COc1ccc2cc3[n+](cc2c1OC)CCc1cc2c(cc1-3)OCO2 [Berberine chloride] | 86.41 | increase the release of GLP-1 | – |
| O=C1NS(=O)(=O)c2cccc([N+](=O)[O-])c21 [Compound 4NS, 4-Nitro saccharin] | – | – | activation of hTAS2R47 (in words) (hTAS2R47): very weak inverse agonist |
